#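 1) Cells in 96-well plates. 2) Compound, 48 h, 5 concentrations. 3) Linear interpolation between surrounding doses. 4) Unreached endpoint = highest concentration. The concentration for full growth arrest is given as TGI.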
# Tests used:
# Assay in all cases: DTP human tumour cell line panel, 48 h
# CAKI-1 renal = tested on: CAKI-1 renal
# LOX IMVI melanoma = tested on: LOX IMVI melanoma
# SF-539 CNS = tested on: SF-539 CNS
# SN12C renal = tested on: SN12C renal
# SK-MEL-28 melanoma = tested on: SK-MEL-28 melanoma
# SNB-19 CNS = tested on: SNB-19 CNS
# MCF7 breast = tested on: MCF7 breast
# HCT-15 colon = tested on: HCT-15 colon
# CCRF-CEM leukemia = tested on: CCRF-CEM leukemia
# K-562 leukemia = tested on: K-562 leukemia
Structure (SMILES),TGI (CAKI-1 renal) [µM],TGI (LOX IMVI melanoma) [µM],TGI (SF-539 CNS) [µM],TGI (SN12C renal) [µM],TGI (SK-MEL-28 melanoma) [µM],TGI (SNB-19 CNS) [µM],TGI (MCF7 breast) [µM],TGI (HCT-15 colon) [µM],TGI (CCRF-CEM leukemia) [µM],TGI (K-562 leukemia) [µM]
CC(C)(C)C(=O)N1CCN(C=O)C1=S,> 100,> 100,> 100,> 100,> 100,> 100,64.5,> 100,97.6,> 100
COc1ccc(OC)c(C[P+](c2ccccc2)(c2ccccc2)c2ccccc2)c1,56,13.2,39.2,> 100,18.8,> 75,> 40.7,> 100,> 26.8,5.91
Nn1c(Sc2nc3ccccc3c(=O)n2N)nc2ccccc2c1=O,20.3,4.25,6.24,18.8,13.1,24.6,27.4,16.5,4.51,> 100
CC(=Nc1cc(Cl)cc(Cl)c1)c1ccncc1,> 100,> 100,> 100,> 100,> 100,> 100,> 100,> 100,> 100,> 100
C/C(=N/NC(=S)N1CCN(C(=S)N/N=C(/C)c2ccccn2)CC1)c1ccccn1,> 100,> 100,> 100,> 100,> 100,> 100,> 100,> 100,> 100,> 100
CC1CN=C(c2ccc(CN3CCC(C4CCN(Cc5ccc(C6=NCC(C)N6)cc5)CC4)CC3)cc2)N1 (stereo not given),> 100,56,37.7,37,> 100,75.8,37.4,94.7,38.2,44.8
Cc1ccc(NC2=N/C(=C/c3ccco3)C(Cl)=N2)cc1,> 100,> 100,> 100,> 100,> 100,> 100,> 100,> 100,> 100,> 100
N#C/C(C(=O)Nc1ccccc1)=C(/N)N1CCCCC1,> 100,> 100,> 100,> 100,> 100,> 100,> 100,> 100,> 100,> 100
CC(=O)NC(=O)NC1=NCCC(=O)N1CCc1c[nH]c2ccccc12,> 100,> 100,> 100,> 100,> 100,> 100,> 100,> 100,> 100,> 100
COc1cc2c(c(OC)c1)C(=O)O[C@H](C)CCCC/C=C/C2,26.4,23,25.9,13.6,> 34.1,> 32.5,> 32.6,> 66.9,> 100,> 100
C=CCc1ccccc1C1CC2(C(=O)OC)OC1C(C(=O)OC)=C2C(=O)OC (stereo not given),> 10,> 10,> 10,> 10,> 10,> 10,> 10,> 10,> 10,> 10
O=C1c2ccccc2C(=O)c2nn(N=P(CP(=Nn3nc4c(n3)C(=O)c3ccccc3C4=O)(c3ccccc3)c3ccccc3)(c3ccccc3)c3ccccc3)nc21,> 100,> 100,> 100,> 100,> 100,> 100,> 100,> 100,> 100,> 100
O=[N+]([O-])c1ccc2c(c1)n1c(N3CCCC3)[n+]3ccccc3c1c1c3cccc[n+]3c(N3CCCC3)n21,> 100,> 100,> 100,> 100,> 100,> 100,> 100,> 100,79.9,88.2
CN(C)CCNC(=O)c1cc(NC(=O)c2cc(NC(=O)CC/C=C3/[C@@H]4CC[C@H]3N=N4)cn2C)cn1C,> 100,> 100,> 100,> 100,> 100,> 100,> 100,> 100,> 100,> 100
CNC(=O)N(CCC#N)CCCN(C(=O)N(C)C)c1ccccc1,> 100,> 100,> 100,> 100,> 100,> 100,> 100,> 100,> 100,> 100
O=c1[nH]c2cc([N+](=O)[O-])c(Nc3c4ccccc4nc4ccccc34)c([N+](=O)[O-])c2[nH]1,7.96,7.02,13.7,9.1,12.9,26.7,8.36,14.4,24.3,6.96

# From PubChem BioAssay (NCI)
